Entries after “also recorded” stand apart in the source; their conditions may differ.
The molecules below were run against T1, TYK2 (Homo sapiens, UniProt P29597) (assay: TYK2 degradation in MOLT-4 cells (Western blot, TYK2 level relative to DMSO-treated cells)). Settings: 24 hour treatment, PROTAC 1 plus pomalidomide (competing for CRBN binding).
T1 construct: MOLT-4 cells (ATCC CRL-1582) were acquired from ATCC and maintained in RPMI-1640 medium; host or cells: MOLT-4 cells
Type: cell-based
Method: With reference to FIGS. 2A-2B. MOLT-4 cells (ATCC CRL-1582) were acquired from ATCC and maintained in RPMI-1640 medium supplemented with 10% fetal bovine serum (ATCC 30-2020), the combination henceforth referred to as “media”. Cells were maintained according to ATCC, (see product sheet), including incubation at 37° C. with 5% C02 in air other than during brief manipulations in a cell culture hood or during centrifugation.
18-24 hours before compound treatment, cells growing for 2-3 days in a flask were centrifuged at 200×g for 8 min, the media was aspirated, and fresh media was used to resuspend the cells. Cells were then counted, diluted with fresh media, and seeded at 650,000-750,000 cells/ml in 6-well plates, with 2 ml of volume per well.
Compounds to be tested were solubilized and stored in dimethyl sulfoxide (DMSO) at 10 mM. Compounds were first diluted in DMSO and then media so that the DMSO concentration was identical across treatments and the final concentration of DMSO was below 0.1% (typically 0.04%). Cells in each well of a 6-well plate were treated by adding 0.5 ml of fresh media containing varying concentrations of compounds to be tested—or only DMSO as a “no treatment” control.
Cells were harvested 24 hours after treatment by collecting all volume from each well into labeled microfuge tubes followed by centrifugation at 200×g for 8 min. Cells were washed in 1 ml of phosphate buffered saline (DPBS; Gibco 141190144) and then 0.5 ml of DPBS by centrifugation (as above) and aspiration. Cell pellets were resuspended by pipetting up-and-down in 100 microliters of ice cold RIPA buffer (Thermo, 89900) supplemented with 1× protease inhibitor cocktail and 1×EDTA (Pierce, 87786) and 1× phosphatase inhibitor cocktail (Pierce, 78420). Cell extracts were incubated on ice for 10 min and then centrifuged at 21,130×g for 20 min in a microfuge. Supernatants were collected and protein concentration for each sample was determined using a BCA kit (Thermo, 23225). Each sample was then denatured by adding 4×LDS buffer (Invitrogen, NP0008) to 1× followed by heating at 95° C. for 5 minutes.
Proteins were separated by electrophoresis using a XCell4 Surelock Midi-Cell apparatus (Invitrogen) and then transferred to PVDF membranes within iBlot 2 Transfer Stacks (Invitrogen, IB24001) using an iBlot 2 system (Invitrogen). Membranes were cut horizontally at a 50 kDa molecular weight marker and each piece of membrane was blocked in TBS-T+5% non-fat dry milk (NFDM) for 1-24 hours. Membranes were then incubated with antibody to TYK2 (Cell Signaling Technologies, 14193) or GAPDH (Cell Signaling Technologies, 5174; as loading control) in TBS-T+1% NFDM for 1 hour. Membranes were washed four times in TBS-T for 10 min each time, and then incubated with a HRP-conjugated secondary antibody (Cell Signaling Technologies, 7074) in TBS-T+1% NFDM for one hour. Membranes were washed four times for 10 min in TBS-T. Membranes were then incubated with reagents according to the SuperSignal West Femto Kit (Thermo, 34095) for 1 min at room temperature. Membranes were then imaged using a Gel Doc XR+ system (BioRad).
Captured images were processed using Image Lab software (BioRad). Using the volume tool, band intensities within rectangles of equal area were determined with the local subtraction method. The effects of compounds on TYK2 levels were related to the level of TYK2 from cells treated with only DMSO (no compound).

T1 sequence (P29597 whole entry): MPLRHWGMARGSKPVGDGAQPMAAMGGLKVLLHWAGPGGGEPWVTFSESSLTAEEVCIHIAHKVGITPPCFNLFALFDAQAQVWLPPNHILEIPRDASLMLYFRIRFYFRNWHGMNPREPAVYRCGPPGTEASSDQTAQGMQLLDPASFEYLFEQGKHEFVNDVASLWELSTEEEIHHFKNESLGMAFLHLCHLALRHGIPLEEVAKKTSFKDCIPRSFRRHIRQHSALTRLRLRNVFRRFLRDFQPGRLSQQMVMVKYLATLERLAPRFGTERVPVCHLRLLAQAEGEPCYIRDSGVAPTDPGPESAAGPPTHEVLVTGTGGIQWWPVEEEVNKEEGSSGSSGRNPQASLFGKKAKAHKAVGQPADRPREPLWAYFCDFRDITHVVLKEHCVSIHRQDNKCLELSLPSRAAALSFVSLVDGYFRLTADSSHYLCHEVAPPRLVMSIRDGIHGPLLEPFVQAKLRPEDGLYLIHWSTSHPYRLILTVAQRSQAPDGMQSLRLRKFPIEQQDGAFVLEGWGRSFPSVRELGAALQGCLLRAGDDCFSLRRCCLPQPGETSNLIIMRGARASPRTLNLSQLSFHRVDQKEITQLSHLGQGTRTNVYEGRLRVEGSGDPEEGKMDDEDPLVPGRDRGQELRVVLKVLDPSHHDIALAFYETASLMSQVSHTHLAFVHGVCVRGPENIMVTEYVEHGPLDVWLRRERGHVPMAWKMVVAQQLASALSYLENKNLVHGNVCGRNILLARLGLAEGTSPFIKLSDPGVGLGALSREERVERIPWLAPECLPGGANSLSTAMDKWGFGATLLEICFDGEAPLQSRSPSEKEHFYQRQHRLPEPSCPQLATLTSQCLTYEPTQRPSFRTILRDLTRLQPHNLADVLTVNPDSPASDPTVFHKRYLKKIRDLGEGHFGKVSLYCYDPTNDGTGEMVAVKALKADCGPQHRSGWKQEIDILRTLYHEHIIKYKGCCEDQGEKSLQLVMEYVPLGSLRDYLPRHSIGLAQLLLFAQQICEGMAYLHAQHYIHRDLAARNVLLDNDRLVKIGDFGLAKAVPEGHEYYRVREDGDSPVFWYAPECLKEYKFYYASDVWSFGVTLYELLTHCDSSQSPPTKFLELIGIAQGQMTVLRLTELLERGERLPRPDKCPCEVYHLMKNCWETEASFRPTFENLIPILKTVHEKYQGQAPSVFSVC

SMILES | amount of TYK2 protein, normalized to GADPH, under competition with pomalidomide (FIG. 2B)
CNC(=O)c1nnc(NC(=O)CCN2CCC(C3CN(c4ccc5c(c4)C(=O)N(C4CCC(=O)NC4=O)C5=O)C3)CC2)cc1Nc1cccc(-c2ncn(C)n2)c1OC (stereo not shown) [PROTAC 1, 6-(3-(4-(1-(2-(2,6-Dioxopiperidin-3-yl)-1,3-dioxoisoindolin-5-yl)azetidin-3-yl)piperidin-1-yl)propanamido)-4-((2-methoxy-3-(1-methyl-1H-1,2,4-triazol-3-yl)phenyl)amino)-N-methylpyridazine-3-carboxamide] | reversal of the PROTAC effect; also recorded: significantly reduces extent of degradation

Same assay, conditions: 24 hour treatment, compound alone; PROTAC 1 at 100 nM

SMILES | amount of TYK2 protein, normalized to the amount of GADPH protein, detected in cell lysates (FIG. 2B)
CNC(=O)c1nnc(NC(=O)CCN2CCC(C3CN(c4ccc5c(c4)C(=O)N(C4CCC(=O)NC4=O)C5=O)C3)CC2)cc1Nc1cccc(-c2ncn(C)n2)c1OC (stereo not shown) [PROTAC 1, 6-(3-(4-(1-(2-(2,6-Dioxopiperidin-3-yl)-1,3-dioxoisoindolin-5-yl)azetidin-3-yl)piperidin-1-yl)propanamido)-4-((2-methoxy-3-(1-methyl-1H-1,2,4-triazol-3-yl)phenyl)amino)-N-methylpyridazine-3-carboxamide] | effective at 100 nM in reducing the amount of TYK2 protein; also recorded: shows degradation
Nc1cccc2c1C(=O)N(C1CCC(=O)NC1=O)C2=O (stereo not shown) [pomalidomide, reference compound] | does not significantly reduce the amount of TYK2 protein

Same assay, conditions: MOLT-4 cells, 24 hours after treatment, TYK2 level related to DMSO-only cells

SMILES | Tyk2 Degradation Score
CNC(=O)c1nnc(NC(=O)CCN2CCC(C3CN(c4ccc5c(c4)C(=O)N(C4CCC(=O)NC4=O)C5=O)C3)CC2)cc1Nc1cccc(-c2ncn(C)n2)c1OC (stereo not shown) [PROTAC 1, 6-(3-(4-(1-(2-(2,6-Dioxopiperidin-3-yl)-1,3-dioxoisoindolin-5-yl)azetidin-3-yl)piperidin-1-yl)propanamido)-4-((2-methoxy-3-(1-methyl-1H-1,2,4-triazol-3-yl)phenyl)amino)-N-methylpyridazine-3-carboxamide] | + (25-50% degradation)
CNC(=O)c1nnc(NC(=O)CCN2CCC(COCC3CCN(c4ccc5c(c4)C(=O)N(C4CCC(=O)NC4=O)C5=O)CC3)CC2)cc1Nc1cccc(-c2ncn(C)n2)c1OC (stereo not shown) [PROTAC 5, 6-(3-(4-(((1-(2-(2,6-Dioxopiperidin-3-yl)-1,3-dioxoisoindolin-5-yl)piperidin-4-yl)methoxy)methyl)piperidin-1-yl)propanamido)-4-((2-methoxy-3-(1-methyl-1H-1,2,4-triazol-3-yl)phenyl)amino)-N-methylpyridazine-3-carboxamide] | + (25-50% degradation)
CNC(=O)c1nnc(NC(=O)CCN2CCN(c3ccc4c(c3)C(=O)N(C3CCC(=O)NC3=O)C4=O)CC2)cc1Nc1cccc(-c2ncn(C)n2)c1OC (stereo not shown) [PROTAC 2, 6-(3-(4-(2-(2,6-Dioxopiperidin-3-yl)-1,3-dioxoisoindolin-5-yl)piperazin-1-yl)propanamido)-4-((2-methoxy-3-(1-methyl-1H-1,2,4-triazol-3-yl)phenyl)amino)-N-methylpyridazine-3-carboxamide] | — (< 25% degradation)
CNC(=O)c1nnc(NC(=O)CCN2CCN(c3cc(N4CCN(c5ccc6c(c5)C(=O)N(C5CCC(=O)NC5=O)C6=O)CC4)ncn3)CC2)cc1Nc1cccc(-c2ncn(C)n2)c1OC (stereo not shown) [PROTAC 4, 6-(3-(4-(6-(4-(2-(2,6-Dioxopiperidin-3-yl)-1,3-dioxoisoindolin-5-yl)piperazin-1-yl)pyrimidin-4-yl)piperazin-1-yl)propanamido)-4-((2-methoxy-3-(1-methyl-1H-1,2,4-triazol-3-yl)phenyl)amino)-N-methylpyridazine-3-carboxamide] | + (25-50% degradation)
CNC(=O)c1nnc(NC(=O)CCN2CCC(CC3CN(c4ccc5c(c4)C(=O)N(C4CCC(=O)NC4=O)C5=O)C3)CC2)cc1Nc1cccc(-c2ncn(C)n2)c1OC (stereo not shown) [PROTAC 3, 6-(3-(4-((1-(2-(2,6-Dioxopiperidin-3-yl)-1,3-dioxoisoindolin-5-yl)azetidin-3-yl)methyl)piperidin-1-yl)propanamido)-4-((2-methoxy-3-(1-methyl-1H-1,2,4-triazol-3-yl)phenyl)amino)-N-methylpyridazine-3-carboxamide] | ++ (51-75% degradation)

The remaining lines, values ahead:

Tyk2 Degradation Score | SMILES
+++ (>75% degradation) | CNC(=O)c1nnc(NC(=O)CCN2CCC(CCCN3CCN(c4ccc5c(c4)C(=O)N(C4CCC(=O)NC4=O)C5=O)CC3)CC2)cc1Nc1cccc(-c2ncn(C)n2)c1OC (stereo not shown) [PROTAC 8, 6-(3-(4-(3-(4-(2-(2,6-Dioxopiperidin-3-yl)-1,3-dioxoisoindolin-5-yl)piperazin-1-yl)propyl)piperidin-1-yl)propanamido)-4-((2-methoxy-3-(1-methyl-1H-1,2,4-triazol-3-yl)phenyl)amino)-N-methylpyridazine-3-carboxamide]
+++ (>75% degradation) | CNC(=O)c1nnc(NC(=O)CCN2CC(CN3CCN(C4CCN(c5ccc6c(c5)C(=O)N(C5CCC(=O)NC5=O)C6=O)CC4)CC3)C2)cc1Nc1cccc(-c2ncn(C)n2)c1OC (stereo not shown) [PROTAC 7, 6-(3-(3-((4-(1-(2-(2,6-Dioxopiperidin-3-yl)-1,3-dioxoisoindolin-5-yl)piperidin-4-yl)piperazin-1-yl)methyl)azetidin-1-yl)propanamido)-4-((2-methoxy-3-(1-methyl-1H-1,2,4-triazol-3-yl)phenyl)amino)-N-methylpyridazine-3-carboxamide]
++ (51-75% degradation) | CNC(=O)c1nnc(NC(=O)CCN2CCC(CCC3CCN(c4ccc(Oc5ccc6c(c5)C(=O)N(C5CCC(=O)NC5=O)C6=O)cc4)CC3)CC2)cc1Nc1cccc(-c2ncn(C)n2)c1OC (stereo not shown) [PROTAC 9, 6-(3-(4-(2-(1-(4-((2-(2,6-Dioxopiperidin-3-yl)-1,3-dioxoisoindolin-5-yl)oxy)phenyl)piperidin-4-yl)ethyl)piperidin-1-yl)propanamido)-4-((2-methoxy-3-(1-methyl-1H-1,2,4-triazol-3-yl)phenyl)amino)-N-methylpyridazine-3-carboxamide]
++ (51-75% degradation) | CNC(=O)c1nnc(NC(=O)CCNCC2CCN(c3ccc4c(c3)C(=O)N(C3CCC(=O)NC3=O)C4=O)CC2)cc1Nc1cccc(-c2ncn(C)n2)c1OC (stereo not shown) [PROTAC 6, 6-(3-(((1-(2-(2,6-Dioxopiperidin-3-yl)-1,3-dioxoisoindolin-5-yl)piperidin-4-yl)methyl)amino)propanamido)-4-((2-methoxy-3-(1-methyl-1H-1,2,4-triazol-3-yl)phenyl)amino)-N-methylpyridazine-3-carboxamide]
++ (51-75% degradation) | CNC(=O)c1nnc(NC(=O)CCN2CCC(CNc3ccc4c(c3)C(=O)N(C3CCC(=O)NC3=O)C4=O)CC2)cc1Nc1cccc(-c2ncn(C)n2)c1OC (stereo not shown) [PROTAC 10, 6-(3-(4-(((2-(2,6-Dioxopiperidin-3-yl)-1,3-dioxoisoindolin-5-yl)amino)methyl)piperidin-1-yl)propanamido)-4-((2-methoxy-3-(1-methyl-1H-1,2,4-triazol-3-yl)phenyl)amino)-N-methylpyridazine-3-carboxamide]

Reference: patent US20260035356A1, “MODULATORS OF TYK2 PROTEOLYSIS AND ASSOCIATED METHODS OF USE” (Arvinas Operations, Inc., priority 2022, published 2026)
